Test results published in patent US9510598B2, “Nitrogen-containing heterocyclic compounds for plant disease control” (BAYER CROPSCIENCE AG, priority 2012, dated 2016).
Read-outs that look alike come from different tables or passages of the source.

What was measured:
[1] = type: physicochemical
[2] = tested on: Alternaria brassicae; assay: In vivo preventive test on Alternaria brassicae (leaf spot on radish); details: 500 ppm; radish plants sprayed 24 hours before contamination; grading 5 days after contamination vs control plants
Description: Radish plants (“Pernod Clair” variety), sown in starter cups on a 50/50 peat soil-pozzolana substrate and grown at 17° C., are treated at the 2-leaf stage by spraying with the active ingredient prepared as described above. Plants, used as controls, are treated with the mixture of acetone/tween/DMSO/water not containing the active material. After 24 hours, the plants are contaminated by spraying the leaves with an aqueous suspension of Alternaria brassicae spores (50 000 spores per ml). The spores are collected from a 15-day-old culture. […] Grading (% of efficacy) is carried out 5 days after the contamination, in comparison with the control plants.

[3] = tested on: Botrytis cinerea; assay: In vivo preventive test on Botrytis cinerea (grey mould); details: 500 ppm; gherkin plants sprayed 24 hours before contamination; grading 4-5 days after contamination vs control plants
Outline: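 Gherkin plants ("Vert petit de Paris") sprayed with compound at Z11 cotyledon stage, then inoculated 24 h later with B. cinerea spores (50 000/ml) in PDB/fructose/NH4NO3/KH2PO4 nutrient solution. Incubated at 17 °C, 80% RH; % efficacy versus solvent-treated controls graded 4–5 days after contamination.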

[4] = tested on: Septoria tritici; assay: In vivo preventive test on Septoria tritici (leaf spot on wheat); details: 500 ppm; wheat plants sprayed 24 hours before contamination; grading 21 to 28 days after contamination vs control plants
Outline: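 Scipion wheat at 1-leaf stage sprayed with compound, controls receiving acetone/tween/DMSO/water vehicle; 24 h later leaves inoculated with Septoria tritici spores (500 000 spores per ml). Efficacy (%) graded versus control plants 21 to 28 days after contamination.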

[5] = tested on: Sphaerotheca fuliginea; assay: In vivo preventive test on Sphaerotheca fuliginea (powdery mildew on cucurbits); details: 500 ppm; gherkin plants sprayed 24 hours before contamination; grading 12 days after contamination vs control plants
Outline: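 Preventive spray of gherkin plants at Z11 cotyledon stage, grown at 24° C; inoculation 24 hours later with Sphaerotheca fuliginea spores (100 000 spores per ml). Efficacy graded 12 days post-inoculation as % versus solvent-treated control plants.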

[6] = tested on: Puccinia recondita; assay: In vivo preventive test on Puccinia recondita (brown rust on wheat); details: 500 ppm; wheat plants sprayed 24 hours before contamination; grading 10 days after contamination vs control plants
Description: Wheat plants (“Scipion” variety), sown in starter cups on a 50/50 peat soil-pozzolana substrate and grown at 22° C. (12 h)/20° C. (12 h), are treated at the 1-leaf stage (10 cm height) by spraying with the active ingredient prepared as described above. Plants, used as controls, are treated with the mixture of acetone/tween/DMSO/water not containing the active material. After 24 hours, the plants are contaminated by spraying the leaves with an aqueous suspension of Puccinia recondita spores (100 000 spores per ml).

[7] = tested on: Phytophthora infestans; type: in vivo; details: 500 ppm; tomato plants sprayed 24 hours before contamination; grading 5 days after contamination vs control plants
[8] = HPLC on reversed phase columns, method [a]: pH 2.7, 0.1% formic acid in water / acetonitrile, linear gradient 10% to 95% acetonitrile
[9] = method [a]: HPLC/LC-MS on reversed phase at pH 2.7, 0.1% formic acid in water / acetonitrile, gradient 10% to 95% acetonitrile
[10] = method [a]: HPLC/LC-MS on reversed phase at pH 2.7, 0.1% formic acid in water / acetonitrile, linear gradient 10% to 95% acetonitrile

| Structure (SMILES) | log P [1, 8] | % of efficacy (protection) [2] [%] | % of efficacy (protection) [3] [%] | % of efficacy (protection) [4] [%] | % of efficacy (protection) [5] [%] | log P [1, 9] | % of efficacy (protection) [6] [%] | % of efficacy (protection) [7] [%] | log P [1, 10] |
| --- | --- | --- | --- | --- | --- | --- | --- | --- | --- |
| CC1(C(=O)NC2CCC2)CC(c2ccc3ncc(Br)cc3c2)=NO1 (stereo not shown) [compound 234] | 2.9^[a] | 75 | 99 | 86 | 94 | – | – | – | – |
| C#Cc1cnc2ccc(C3=NOC(OC)(C(=O)NC4CC4)C3)cc2c1 (stereo not shown) [compound 504] | – | – | 99 | 100 | 100 | 2.08[a] | 72 | – | – |
| CCn1cc(CNC(=O)C2(C(F)F)CC(c3ccc4ncc(I)cc4c3)=NO2)c(C)n1 (stereo not shown) [compound 617] | 2.73[a] | – | 95 | – | 100 | – | 71 | – | – |
| CC1(C(=O)NC2CCC2)CC(c2ccc3ncc(I)cc3c2)=NO1 (racemic) [compound 454] | – | – | – | – | – | 3.06[a] | 94 | – | – |
| CCn1cc(CNC(=O)C2(C)CC(c3ccc4ncc(C)cc4c3)=NO2)c(C)n1 (stereo not shown) [compound 257] | 1.46^[a] | – | – | – | – | – | 81 | 100 | – |
| C#CC1(C(=O)NC(C)C)CC(c2ccc3ncc(Br)cc3c2)=NO1 (stereo not shown) [compound 402] | – | 71 | 99 | 100 | – | 2.92[a] | – | – | – |
| CCCn1cc(CNC(=O)C2(OC)CC(c3ccc4ncc(Br)cc4c3)=NO2)c(C)n1 (stereo not shown) [compound 50] | – | – | 100 | 100 | 100 | – | 88 | 100 | – |
| CC1(C(N)=O)CC(c2ccc3ncc(Br)cc3c2)=NO1 (racemic) [compound 380] | – | – | – | – | – | 1.82[a] | 78 | – | – |
| CCC#Cc1cnc2ccc(C3=NOC(C)(C(=O)NCc4cn(CC)nc4C)C3)cc2c1 (racemic) [compound 394] | – | – | – | – | – | 2.75[a] | 92 | – | – |
| CSC1(C(=O)NC(C)C)CC(c2ccc3ncc(Br)cc3c2)=NO1 (stereo not shown) [compound 530] | 2.88[a] | – | 100 | – | – | – | 79 | – | – |
| CC1(C(=O)NC2CC2C2CC2)CC(c2ccc3ncc(Br)cc3c2)=NO1 (stereo not shown) [compound 215] | – | 75 | 87 | 86 | – | – | – | – | 3.29^[a] |
| C#Cc1cnc2ccc(C3=NOC(C)(C(=O)NCc4cnn(C)c4C)C3)cc2c1 (stereo not shown) [compound 178] | – | 75 | 100 | 100 | – | – | – | – | 1.93^[a] |
| C#Cc1cnc2ccc(C3=NOC(CC)(C(=O)NC(C)C)C3)cc2c1 (racemic) [compound 446] | – | – | 98 | 100 | 94 | 2.76[a] | 83 | – | – |
| C#Cc1cnc2ccc(C3=NOC(C)(C(=S)NCc4cnn(C)c4)C3)cc2c1 (racemic) [compound 451] | – | – | – | 94 | – | 2.62[a] | 89 | – | – |
| CC(C)NC(=O)C1(C)CC(c2ccc3ncc(S(C)(=O)=O)cc3c2)=NO1 (stereo not shown) [compound 146] | – | – | – | – | – | – | 72 | 85 | 1.81^[a] |
| CCOCCCNC(=O)C1(C)CC(c2ccc3ncc(I)cc3c2)=NO1 (racemic) [compound 456] | – | – | 98 | 100 | 98 | 2.86[a] | 83 | – | – |

| Structure (SMILES) | log P [1, 8] | % of efficacy (protection) [2] [%] | % of efficacy (protection) [3] [%] | % of efficacy (protection) [4] [%] | % of efficacy (protection) [5] [%] | log P [1, 9] | % of efficacy (protection) [6] [%] | % of efficacy (protection) [7] [%] | log P [1, 10] |
| --- | --- | --- | --- | --- | --- | --- | --- | --- | --- |
| CCn1cc(CNC(=O)C2(C)CC(c3cc(Cl)c4ncc(Br)cc4c3)=NO2)c(C)n1 (racemic) [compound 548] | 2.77[a] | – | 94 | 100 | 80 | – | 83 | – | – |
| C#Cc1cnc2ccc(C3=NOC(C)(C(=O)NCc4ccc5ncccc5c4)C3)cc2c1 (stereo not shown) [compound 227] | – | 75 | 92 | 93 | – | – | – | – | 1.59^[a] |
| CCn1cc(CNC(=O)C2(c3ccccc3)CC(c3ccc4ncc(Br)cc4c3)=NO2)c(C)n1 (stereo not shown) [compound 278] | 3.18[a] | 86 | – | – | 100 | – | – | – | – |
| C#Cc1cnc2ccc(C3=NOC(C)(C(=O)NCC4CCOC4)C3)cc2c1 (stereo not shown) [compound 214] | – | 75 | 100 | 100 | 78 | – | – | – | 1.98^[a] |
| C#Cc1cnc2ccc(C3=NOC(C)(C(=O)NCc4noc(C)n4)C3)cc2c1 (stereo not shown) [compound 170] | – | 81 | 100 | 71 | – | – | – | – | 1.99^[a] |
| CCCn1cc(CNC(=O)C2(CC3CC3)CC(c3ccc4ncc(Br)cc4c3)=NO2)c(C)n1 (stereo not shown) [compound 424] | – | – | – | – | – | 3.33[a] | 72 | – | – |
| C#Cc1cnc2c(C)cc(C3=NOC(C)(C(=O)NCC4COC(C)(C)O4)C3)cc2c1 (stereo not shown) [compound 536] | 2.98[a] | – | 100 | 100 | 100 | – | 72 | – | – |
| C#Cc1cnc2ccc(C3=NOC(C)(C(=O)NCc4cnn(C)c4)C3)cc2c1 (stereo not shown) [compound 180] | – | 75 | 95 | 100 | 98 | – | – | 86 | 1.86^[a] |
| C#Cc1cnc2ccc(C3=NOC(C)(C(=O)NCc4ccc5ccoc5c4)C3)cc2c1 (stereo not shown) [compound 242] | 3^[a] | 94 | 86 | 86 | – | – | – | – | – |
| C#Cc1cnc2ccc(C3=NOC(C)(C(=O)NCc4cccs4)C3)cc2c1 (stereo not shown) [compound 162] | – | 88 | 99 | 86 | 94 | – | – | – | 2.73^[a] |
| C#Cc1cnc2ccc(C3=NOC(C)(C(=O)NCc4ncc(C(F)(F)F)cc4Cl)C3)cc2c1 (stereo not shown) [compound 157] | – | – | – | – | – | – | 72 | – | 3.48^[a] |
| C#Cc1cnc2ccc(C3=NOC(OC)(C(=O)N(CC(F)F)C(C)C)C3)cc2c1 (stereo not shown) [compound 469] | – | – | – | 97 | – | 3.60[a] | 80 | – | – |
| CCCn1cc(CNC(=O)C2(OC)CC(c3cc(Cl)c4ncc(Br)cc4c3)=NO2)c(C)n1 (stereo not shown) [compound 567] | 3.08[a] | – | 100 | 100 | 100 | – | 75 | – | – |
| C#Cc1cnc2ccc(C3=NOC(OC)(C(=O)N4CCCCO4)C3)cc2c1 (racemic) [compound 457] | – | – | – | 88 | – | 2.41[a] | 83 | – | – |
| C#Cc1cnc2ccc(C3=NOC(C)(C(=O)NCC4OCCc5ccccc54)C3)cc2c1 (single isomer, unassigned) [compound 262] | 3.13^[a] | – | 95 | – | – | – | 81 | – | – |
